This passage reports inhibition and Ki results from paper PMC3958412, “Proteasome Dysfunction Mediates High Glucose-Induced Apoptosis in Rodent Beta Cells and Human Islets” (PLoS ONE, 2014).

Residues, ends and D or L forms follow the SMILES beside them. *: point of attachment. Cbz = O=C(OCc1ccccc1)*

In general, inhibition refers to the percentage by which the read-out fell short of the control. As usually defined, the Ki is the equilibrium dissociation constant of an inhibitor or competing ligand from its target. High values mean weaker binding, low ones tighter binding.

What all share (type): cell-based
The target of assay [1] is T1, 20S proteasome β1 subunit (caspase-like activity) (Rattus norvegicus, UniProt P28073).
T1 construct: gene Psmb6; with other subunits of the 20S/26S proteasome
T1 sequence (P28073 34-238): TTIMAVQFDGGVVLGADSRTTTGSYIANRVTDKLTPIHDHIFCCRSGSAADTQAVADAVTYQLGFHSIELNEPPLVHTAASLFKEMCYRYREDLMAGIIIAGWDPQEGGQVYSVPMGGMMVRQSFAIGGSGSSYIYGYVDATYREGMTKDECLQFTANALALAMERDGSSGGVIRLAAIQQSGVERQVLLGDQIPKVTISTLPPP
The experiment in a line: caspase-like activity (Z-LLE-MCA cleavage) in lysates of INS-1E cells treated with […] MG-132. Particulars: read-out: % inhibition at 150 nM.

For assay [2], the target named is T2, 20S proteasome β2 subunit (trypsin-like activity) (Rattus norvegicus, UniProt Q9JHW0).
T2 construct: gene Psmb7; with other subunits of the 20S/26S proteasome
T2 sequence (Q9JHW0 44-277): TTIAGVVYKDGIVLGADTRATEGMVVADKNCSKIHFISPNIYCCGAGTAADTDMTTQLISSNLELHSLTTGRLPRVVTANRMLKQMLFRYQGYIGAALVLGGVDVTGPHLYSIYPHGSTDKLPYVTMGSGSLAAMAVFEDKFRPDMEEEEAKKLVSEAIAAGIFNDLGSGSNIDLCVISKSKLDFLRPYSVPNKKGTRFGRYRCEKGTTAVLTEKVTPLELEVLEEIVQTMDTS
The experiment in a line: trypsin-like activity (Z-ARR-MCA cleavage) in lysates of INS-1E cells treated with […] MG-132. Particulars: read-out: % inhibition at 150 nM.

Assay [3] concerns the target T3, 20S proteasome β5 subunit (chymotrypsin-like activity) (Rattus norvegicus, UniProt P28075).
T3 construct: gene Psmb5; with other subunits of the 20S/26S proteasome
T3 sequence (P28075 60-263): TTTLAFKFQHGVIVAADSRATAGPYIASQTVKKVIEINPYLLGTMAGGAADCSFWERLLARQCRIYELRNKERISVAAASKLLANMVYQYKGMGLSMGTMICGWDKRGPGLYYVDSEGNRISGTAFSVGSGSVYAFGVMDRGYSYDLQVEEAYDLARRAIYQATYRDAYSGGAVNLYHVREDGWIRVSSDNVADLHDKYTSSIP
Kind of assay: chymotrypsin-like activity (Suc-LLVY-MCA cleavage) in lysates of MG-132-treated INS-1E cells, dose-response.

Turning to `CC(C)C[C@@H](C=O)NC(=O)[C@H](CC(C)C)NC(=O)[C@H](CC(C)C)NC(=O)OCc1ccccc1` [MG-132] (Cbz-Leu-Leu-Leu-aldehyde), the inhibition at 0.15 µM in assay [1] is 80%; in assay [2] it was 50%. Moreover, in assay [3], the Ki is 50 nM.
